The subject of this series is cotton melon aphid (Aphis gossypii (Glover)). As to the kind of experiment: Test C: control of cotton melon aphid on sprayed okra plant. Format: in vivo. As to conditions: sprayed at 250 ppm; assessed after 6 days. How it is done:
Test compounds were formulated using a solution containing 10% acetone, 90% water and 300 ppm Activator 90@non-ionic surfactant (Loveland Products, Loveland, Colorado, USA). The formulated compounds were applied in 1 mL of liquid through an atomized nozzle positioned 1.27 cm (0.5 inches) above the top of each test unit. Test compounds were sprayed at the rates indicated, and each test was replicated three times.
For evaluating control of cotton melon aphid (Aphis gossypii (Glover)) through contact and/or systemic means, the test unit consisted of a small open container with a 5-day-old okra plant inside. This was pre-infested with 30-40 insects on a piece of leaf according to the cut-leaf method, and the soil of the test unit was covered with a layer of sand.
Test compounds were formulated and sprayed at 250, 50, 10, and 2 ppm with three replications as described above. After spraying, the test units were maintained in a growth chamber for 6 days at 19° C. and 70% relative humidity. Each test unit was then visually assessed for insect mortality.

SMILES strings stand for the structures.

Regarding `CC(c1c([N+](=O)[O-])cnn1-c1ncccn1)N(C)C(=O)c1cc(C(F)(F)F)cc(C(F)(F)F)c1` (stereo not shown) [Compound 96], the mortality result is given as “at least 80%”.

The values above are taken from patent US20260083129A1, “PYRAZOLE AMIDE INSECTICIDES” (FMC CORPORATION, priority 2022, published 2026).
